Source: paper PMC4696493 (RSC advances, 2014)
≈ marks a conversion by molar mass, not a printed value. Read-outs that look alike come from different tables or passages of the source. No end group written: not given here.

Columns and labels:
[1] = tested on: E. coli K12
[2] = tested on: Bacillus subtilis PY79
[3] = target: G-actin (Oryctolagus cuniculus, UniProt P68135); assay: Surface plasmon resonance, actin binding; set-up: species or system rabbit

Compound	MIC ([1]; E. coli K12, 100 mM NaCl, tryptic soy broth (TSB))	MIC ([1]; E. coli K12, no salt, tryptic soy broth (TSB))	MIC ([2]; measured with B. subtilis PY79, LB, 37 °C)	Kd [3]	MIC ([2]; PY79)	MIC ([1]; K12)
CC[C@H](C)[C@H](NC(=O)[C@H](CCCCN)NC(=O)[C@H](CCC(=O)O)NC(=O)[C@H](CCCCN)NC(=O)[C@H](CO)NC(=O)[C@H](CCCCN)NC(=O)[C@H](CCCNC(=N)N)NC(=O)[C@H](Cc1ccccc1)NC(=O)[C@H](Cc1ccccc1)NC(=O)[C@H](CC(=O)O)NC(=O)CNC(=O)[C@H](CC(C)C)NC(=O)[C@@H](N)CC(C)C)C(=O)NCC(=O)N[C@@H](CCCCN)C(=O)N[C@@H](CCC(=O)O)C(=O)N[C@@H](Cc1ccccc1)C(=O)N[C@@H](CCCCN)C(=O)N[C@@H](CCCNC(=N)N)C(=O)N[C@H](C(=O)N[C@H](C(=O)N[C@@H](CCC(N)=O)C(=O)N[C@@H](CCCNC(=N)N)C(=O)N[C@H](C(=O)N[C@@H](CCCCN)C(=O)N[C@@H](CC(=O)O)C(=O)N[C@@H](Cc1ccccc1)C(=O)N[C@@H](CC(C)C)C(=O)N[C@@H](CCCNC(=N)N)C(=O)N[C@@H](CC(N)=O)C(=O)N[C@@H](CC(C)C)C(=O)N[C@H](C(=O)N1CCC[C@H]1C(=O)N[C@@H](CCCNC(=N)N)C(=O)N[C@H](C(=O)N[C@@H](CCC(=O)O)C(=O)N[C@@H](CO)C(=O)O)[C@@H](C)O)C(C)C)[C@@H](C)CC)C(C)C)[C@@H](C)CC [LL-37, reference compound]	10 µM (≈ 44.9 µg/mL)	10 µM	1.1 µM (≈ 4.94 µg/mL)			
FKRIVQRIKDFLR-NH2 [FK-13]				18.6 µM	3.3 µM	
KRIVQRIKDF-NH2 [KR-10]				28.4 µM		>160 µM
KRIVQRIKDFLR-NH2 [KR-12]				11.8 µM	6.6 µM	
